Source: patent US20170152569A1, “POLYMORPHISM IN THE BCL2 GENE DETERMINES RESPONSE TO CHEMOTHERAPY” (HIDENSEQ, priority 2014, published 2017)

Columns and labels:
HeyA8 cells [1] = experiment: Bcl2 gradient assay: cell sensitivity to paclitaxel with increasing wt-BCL2-GFP doses; type: cell-based; conditions: HeyA8 cells transfected with increased concentrations of BCL2 mRNA (5 doses of wt-BCL2-GFP); viability by FACS 24 hours after paclitaxel
Method: (§1) Propidium iodide (PI) was added to the cell suspension at a concentration of 1 μg/ml. Sorting and analyses were carried out in a Gallios flow cytometer cell sorter collecting 10,000 events. Dead cells were excluded by gating on forward and side scatter and by eliminating PI-positive events.
(§2) To examine the effect of rs1801018 variant on cells sensitivity to paclitaxel, GFP-empty vector control or one of three GFP-BCL2 variants (wild-type, rs1801018 variant or random) were over-expressed in cells, which then were tested with paclitaxel. Cells were incubated with increasing concentrations of paclitaxel as indicated in methods and in FIG. 3. […] To study the relationship between resistance to paclitaxel and BCL2 gene copy numbers, a Bcl2 gradient assay was performed. The assay is designed to examine cell sensitivity to paclitaxel in the presence of increasing levels of BCL2 copies. HeyA8 cells were transfected with 5 different doses of wt-BCL2-GFP. 24 hours post transfection cells were treated with paclitaxel, and 24 hours post incubation cells viability was measured by FACS.

[2] = system: Uterine Corpus Endometrial carcinoma (UCEC); conditions: of 83 UCEC patients, paclitaxel as first line; cited from earlier work
Ovarian Cancer (OV) = conditions: paclitaxel as first line; cited from earlier work
HeyA8 cells [3] = experiment: Sensitivity of transfected HeyA8 cells to paclitaxel (cell viability, PI/FACS); type: cell-based
Method: HeyA8 ovarian cell lines were grown at 37° C. with 5% CO2 in MEM-EAGLE medium supplement with 2 mM L-glutamine, 1.5 g/L sodium bicarbonate, 4.5 g/L glucose, 10 mM HEPES, 1.0 mM sodium pyruvate and 10% fetal bovine serum (FBS).
as §1
Cells expressing GFP-empty vector or one of three types of GFP-BCL2 variants were measured for their sensitivity to paclitaxel. Following 24 hours of transfection with one of the indicated plasmids, cells were introduced to 100 or 200 nM of paclitaxel for 24 hours incubation.
as §2

For `CC(=O)O[C@H]1C(=O)[C@@]2(C)[C@H]([C@H](OC(=O)c3ccccc3)[C@]3(O)C[C@H](OC(=O)[C@H](O)[C@@H](NC(=O)c4ccccc4)c4ccccc4)C(C)=C1C3(C)C)[C@]1(OC(C)=O)CO[C@@H]1C[C@@H]2O` [paclitaxel, (2α,4α,5β,7β,10β,13α)-4,10-Bis(acetyloxy)-13-{[(2R,3S)-3-(benzoylamino)-2-hydroxy-3-phenylpropanoyl]oxy}-1,7-dihydroxy-9-oxo-5,20-epoxytax-11-en-2-yl benzoate], the “relative cell death in response to paclitaxel” value (HeyA8 cells [1]) is given as “decrease in relative cell death”, the “patients who require multiple lines” value [2] is given as 20 patients and the “patients who responded to the first line of treatment” value [2] is given as 63 patients. The “patients who required additional lines of diverse chemotherapies” value (Ovarian Cancer (OV)) was 226 patients, the “patients who responded well to the first line of treatment” value (Ovarian Cancer (OV)) was 144 patients and the sensitivity to paclitaxel (HeyA8 cells [3]; HeyA8 cells harboring GFP-empty vector, 100 or 200 nM paclitaxel, 24 hours) was “high sensitivity”. The “cell viability in response to paclitaxel” value (HeyA8 cells [3]; HeyA8 cells transfected with rs1801018 variant (BCL2-Mut), p-value <0.05) was “significantly improved” and the “cell death / cell viability in response to paclitaxel” value (HeyA8 cells [3]; HeyA8 cells transfected with wild-type or random BCL2, 100 or 200 nM paclitaxel, 24 hours) was “reduced cell death”.
